According to ChEMBL document CHEMBL5465560, “Selectivity Literature for EUbOPEN Chemogenomic Library” (2024):

Tests used:
[1] = molecular target: T1, Serine/threonine-protein kinase ULK3 (Homo sapiens) (UniProt Q6PHR2); assay: Selectivity interaction (Kinase panel (KiNativ target engagement assay in Jurkat cells)) EUB0001635a ULK3; format: cell-based; settings: at 1 µM
T1 sequence (whole entry): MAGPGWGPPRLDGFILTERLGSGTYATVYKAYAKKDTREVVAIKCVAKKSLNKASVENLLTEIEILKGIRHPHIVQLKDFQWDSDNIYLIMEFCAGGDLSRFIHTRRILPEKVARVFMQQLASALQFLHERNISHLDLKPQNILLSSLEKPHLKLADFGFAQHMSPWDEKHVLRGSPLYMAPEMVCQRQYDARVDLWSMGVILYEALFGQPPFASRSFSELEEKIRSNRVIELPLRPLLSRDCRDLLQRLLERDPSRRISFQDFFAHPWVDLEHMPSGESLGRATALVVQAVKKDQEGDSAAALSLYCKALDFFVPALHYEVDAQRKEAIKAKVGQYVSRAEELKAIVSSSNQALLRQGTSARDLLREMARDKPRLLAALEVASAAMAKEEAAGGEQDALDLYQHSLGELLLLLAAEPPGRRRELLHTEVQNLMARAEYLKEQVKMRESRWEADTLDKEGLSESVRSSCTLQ

[2] = molecular target: Serine/threonine-protein kinase tousled-like 2 (Homo sapiens) (UniProt Q86UE8); assay: Selectivity interaction (KinomeScan (DiscoverX)) EUB0000229b TLK2; settings: at 10 µM
[3] = molecular target: AP2-associated protein kinase 1 (Homo sapiens, UniProt Q2M2I8); assay: Selectivity interaction (KinomeScan (DiscoverX)) EUB0001079a AAK1; settings: at 1 µM
[4] = molecular target: T2, Serine/threonine-protein kinase Nek1 (Homo sapiens) (UniProt Q96PY6); assay: Selectivity interaction (KinomeScan (DiscoverX)) EUB0001049a NEK1; settings: at 1 µM
T2 sequence (whole entry): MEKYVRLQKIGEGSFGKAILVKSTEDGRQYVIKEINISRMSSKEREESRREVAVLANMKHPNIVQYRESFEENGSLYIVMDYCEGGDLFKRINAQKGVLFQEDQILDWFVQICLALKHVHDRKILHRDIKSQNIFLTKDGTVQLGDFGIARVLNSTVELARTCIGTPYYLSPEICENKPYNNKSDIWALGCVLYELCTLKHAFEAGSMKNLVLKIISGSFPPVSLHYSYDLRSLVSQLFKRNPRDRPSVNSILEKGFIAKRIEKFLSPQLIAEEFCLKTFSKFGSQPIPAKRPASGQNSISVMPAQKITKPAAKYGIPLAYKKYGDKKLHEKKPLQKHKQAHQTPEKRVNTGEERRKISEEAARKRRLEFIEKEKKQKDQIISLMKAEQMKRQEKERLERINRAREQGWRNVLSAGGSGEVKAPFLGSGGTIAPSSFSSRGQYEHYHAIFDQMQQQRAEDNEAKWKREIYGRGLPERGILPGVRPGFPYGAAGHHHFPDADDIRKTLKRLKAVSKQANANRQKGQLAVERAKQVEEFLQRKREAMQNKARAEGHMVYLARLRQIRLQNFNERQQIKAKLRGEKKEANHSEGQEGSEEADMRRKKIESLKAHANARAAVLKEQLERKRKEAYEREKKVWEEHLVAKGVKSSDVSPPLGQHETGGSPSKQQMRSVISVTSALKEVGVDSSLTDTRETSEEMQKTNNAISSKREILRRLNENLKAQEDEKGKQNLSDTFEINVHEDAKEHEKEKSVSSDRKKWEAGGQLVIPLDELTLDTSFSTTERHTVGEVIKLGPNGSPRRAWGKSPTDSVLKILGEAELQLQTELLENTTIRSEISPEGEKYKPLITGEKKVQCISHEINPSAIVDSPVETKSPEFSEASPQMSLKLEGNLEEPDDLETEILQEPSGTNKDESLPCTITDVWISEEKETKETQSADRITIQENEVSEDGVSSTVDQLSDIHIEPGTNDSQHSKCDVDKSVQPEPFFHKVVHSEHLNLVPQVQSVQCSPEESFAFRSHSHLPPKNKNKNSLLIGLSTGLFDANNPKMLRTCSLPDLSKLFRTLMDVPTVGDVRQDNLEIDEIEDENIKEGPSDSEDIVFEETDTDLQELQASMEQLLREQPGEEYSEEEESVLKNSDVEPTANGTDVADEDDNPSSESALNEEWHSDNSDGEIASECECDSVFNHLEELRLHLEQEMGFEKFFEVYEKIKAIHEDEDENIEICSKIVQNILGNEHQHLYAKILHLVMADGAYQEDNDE

[5] = molecular target: BDNF/NT-3 growth factors receptor (Homo sapiens) (UniProt Q16620); assay: Selectivity interaction (KinomeScan (DiscoverX)) EUB0000618a NTRK2; settings: at 10 µM
[6] = molecular target: Tyrosine-protein kinase Srms (Homo sapiens) (UniProt Q9H3Y6); settings: at 10 µM
[7] = molecular target: T3, Cyclin-dependent kinase 11A (Homo sapiens) (UniProt Q9UQ88); assay: Selectivity interaction (Ambit KINOMEscan and KiNATiv profiling in Jurkat cells) EUB0000090b CDK11A; format: cell-based; settings: at 1 µM
T3 sequence (whole entry): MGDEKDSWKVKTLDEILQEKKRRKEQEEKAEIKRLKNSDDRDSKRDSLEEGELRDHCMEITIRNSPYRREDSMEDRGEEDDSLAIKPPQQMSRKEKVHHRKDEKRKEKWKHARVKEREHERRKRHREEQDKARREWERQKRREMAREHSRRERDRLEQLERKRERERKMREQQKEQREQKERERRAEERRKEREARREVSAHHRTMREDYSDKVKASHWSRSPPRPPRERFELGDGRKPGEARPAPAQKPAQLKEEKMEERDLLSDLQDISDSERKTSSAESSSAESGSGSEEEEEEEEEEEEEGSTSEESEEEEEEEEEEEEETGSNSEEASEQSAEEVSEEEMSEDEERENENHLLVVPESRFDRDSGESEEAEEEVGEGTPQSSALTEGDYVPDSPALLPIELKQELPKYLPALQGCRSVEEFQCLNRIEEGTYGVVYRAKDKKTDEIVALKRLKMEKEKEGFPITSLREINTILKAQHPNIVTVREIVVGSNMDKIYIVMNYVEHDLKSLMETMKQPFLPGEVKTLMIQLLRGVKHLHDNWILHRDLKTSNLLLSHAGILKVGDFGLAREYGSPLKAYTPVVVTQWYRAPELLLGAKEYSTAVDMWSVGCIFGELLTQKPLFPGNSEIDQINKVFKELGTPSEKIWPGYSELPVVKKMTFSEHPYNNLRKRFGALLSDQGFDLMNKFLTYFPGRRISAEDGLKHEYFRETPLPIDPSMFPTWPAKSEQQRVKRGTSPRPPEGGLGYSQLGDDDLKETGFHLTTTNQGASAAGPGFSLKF

[8] = molecular target: Tyrosine-protein kinase SYK (Homo sapiens, UniProt P43405); assay: Selectivity interaction (Ambit KINOMEscan and KiNATiv profiling in Jurkat cells) EUB0000090b SYK; format: cell-based; settings: at 1 µM

Serine/threonine-protein kinase tousled-like 2 (Homo sapiens), sequence (Q86UE8 whole entry, looked up): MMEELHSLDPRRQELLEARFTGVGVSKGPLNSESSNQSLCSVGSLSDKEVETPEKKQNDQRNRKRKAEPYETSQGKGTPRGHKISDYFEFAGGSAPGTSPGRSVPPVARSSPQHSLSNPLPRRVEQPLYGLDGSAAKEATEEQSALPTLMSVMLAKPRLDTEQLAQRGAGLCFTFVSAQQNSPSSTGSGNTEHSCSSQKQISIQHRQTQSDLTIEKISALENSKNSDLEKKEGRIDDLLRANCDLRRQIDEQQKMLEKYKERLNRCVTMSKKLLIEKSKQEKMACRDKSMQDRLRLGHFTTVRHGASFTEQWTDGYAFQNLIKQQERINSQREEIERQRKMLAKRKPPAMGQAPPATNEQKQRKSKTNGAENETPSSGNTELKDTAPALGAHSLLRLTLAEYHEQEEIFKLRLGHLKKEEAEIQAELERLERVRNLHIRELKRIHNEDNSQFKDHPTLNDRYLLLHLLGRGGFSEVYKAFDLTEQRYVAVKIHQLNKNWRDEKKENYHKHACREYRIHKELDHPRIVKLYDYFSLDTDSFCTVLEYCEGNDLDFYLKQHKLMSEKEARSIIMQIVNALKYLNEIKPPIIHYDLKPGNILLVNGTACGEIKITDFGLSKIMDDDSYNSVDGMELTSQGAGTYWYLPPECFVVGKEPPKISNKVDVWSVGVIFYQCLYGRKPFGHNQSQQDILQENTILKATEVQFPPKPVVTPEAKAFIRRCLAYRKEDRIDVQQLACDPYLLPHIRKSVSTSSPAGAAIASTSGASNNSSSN
BDNF/NT-3 growth factors receptor (Homo sapiens), sequence (Q16620 32-822 limits assumed): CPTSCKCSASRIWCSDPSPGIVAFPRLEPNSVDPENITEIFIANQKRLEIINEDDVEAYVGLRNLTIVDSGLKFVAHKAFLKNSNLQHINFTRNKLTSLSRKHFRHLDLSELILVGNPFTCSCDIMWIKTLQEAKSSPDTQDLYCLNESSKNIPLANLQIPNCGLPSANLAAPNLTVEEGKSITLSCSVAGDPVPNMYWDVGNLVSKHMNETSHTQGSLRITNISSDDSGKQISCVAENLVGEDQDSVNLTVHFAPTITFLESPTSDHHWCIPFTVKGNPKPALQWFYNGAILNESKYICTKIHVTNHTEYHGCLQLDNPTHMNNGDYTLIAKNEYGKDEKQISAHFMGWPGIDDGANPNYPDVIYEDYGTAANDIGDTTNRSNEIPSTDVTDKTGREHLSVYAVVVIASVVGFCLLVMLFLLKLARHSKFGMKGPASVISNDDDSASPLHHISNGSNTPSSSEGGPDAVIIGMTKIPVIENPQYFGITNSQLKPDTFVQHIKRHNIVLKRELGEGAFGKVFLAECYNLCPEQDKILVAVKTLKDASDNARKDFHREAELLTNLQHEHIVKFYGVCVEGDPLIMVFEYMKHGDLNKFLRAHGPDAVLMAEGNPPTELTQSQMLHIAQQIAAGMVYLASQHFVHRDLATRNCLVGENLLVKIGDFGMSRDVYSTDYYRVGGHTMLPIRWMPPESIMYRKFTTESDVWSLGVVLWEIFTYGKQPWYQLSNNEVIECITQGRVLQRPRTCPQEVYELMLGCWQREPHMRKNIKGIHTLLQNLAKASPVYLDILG
Tyrosine-protein kinase Srms (Homo sapiens), sequence (Q9H3Y6 whole entry): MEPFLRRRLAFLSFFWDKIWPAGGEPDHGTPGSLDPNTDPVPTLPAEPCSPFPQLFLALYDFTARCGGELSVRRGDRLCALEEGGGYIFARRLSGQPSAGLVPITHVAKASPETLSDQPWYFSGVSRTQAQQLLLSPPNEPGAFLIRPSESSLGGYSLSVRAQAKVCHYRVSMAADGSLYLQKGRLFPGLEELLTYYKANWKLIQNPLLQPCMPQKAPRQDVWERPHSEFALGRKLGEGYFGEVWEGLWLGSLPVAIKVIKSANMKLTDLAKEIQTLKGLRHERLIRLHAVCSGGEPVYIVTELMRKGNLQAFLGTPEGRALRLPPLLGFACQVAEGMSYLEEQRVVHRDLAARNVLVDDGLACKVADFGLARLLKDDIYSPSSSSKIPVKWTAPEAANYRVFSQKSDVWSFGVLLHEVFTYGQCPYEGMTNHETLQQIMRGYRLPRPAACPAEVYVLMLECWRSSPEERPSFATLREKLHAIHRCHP
AP2-associated protein kinase 1, sequence (Q2M2I8 whole entry, looked up): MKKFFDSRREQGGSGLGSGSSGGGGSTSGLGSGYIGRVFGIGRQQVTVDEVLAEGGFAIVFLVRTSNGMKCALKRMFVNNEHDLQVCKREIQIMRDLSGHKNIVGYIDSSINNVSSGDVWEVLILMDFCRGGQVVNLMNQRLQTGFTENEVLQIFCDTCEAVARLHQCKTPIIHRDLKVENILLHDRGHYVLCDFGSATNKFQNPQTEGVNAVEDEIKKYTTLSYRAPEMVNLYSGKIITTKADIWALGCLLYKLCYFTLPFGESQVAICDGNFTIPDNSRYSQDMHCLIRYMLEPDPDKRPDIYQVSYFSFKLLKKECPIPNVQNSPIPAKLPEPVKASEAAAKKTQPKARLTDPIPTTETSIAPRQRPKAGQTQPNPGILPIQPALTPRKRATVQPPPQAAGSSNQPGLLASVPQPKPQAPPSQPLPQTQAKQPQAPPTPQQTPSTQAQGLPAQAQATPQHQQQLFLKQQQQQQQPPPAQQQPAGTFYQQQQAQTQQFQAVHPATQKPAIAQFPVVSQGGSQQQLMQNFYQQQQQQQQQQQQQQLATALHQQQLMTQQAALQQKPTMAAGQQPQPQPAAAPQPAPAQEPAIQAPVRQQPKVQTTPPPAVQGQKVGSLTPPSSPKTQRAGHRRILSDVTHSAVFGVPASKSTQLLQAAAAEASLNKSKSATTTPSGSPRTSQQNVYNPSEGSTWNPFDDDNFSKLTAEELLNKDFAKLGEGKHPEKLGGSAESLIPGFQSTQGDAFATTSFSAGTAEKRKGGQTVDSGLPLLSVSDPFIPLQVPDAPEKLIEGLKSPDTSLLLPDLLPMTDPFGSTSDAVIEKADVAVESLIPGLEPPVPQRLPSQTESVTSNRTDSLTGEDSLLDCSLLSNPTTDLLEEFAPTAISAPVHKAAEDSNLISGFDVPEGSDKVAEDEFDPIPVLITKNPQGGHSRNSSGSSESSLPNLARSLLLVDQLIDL

SMILES: C=CC(=O)Nc1ccc(C(=O)Nc2[nH]nc3c2CN(C(=O)N[C@H](CN(C)C)c2ccccc2)C3(C)C)cc1
- % of engagement ([1]; Selectivity number of off-targets 0.0, Selectivity number of targets 233.0, Source Knowledge https://www.sciencedirect.com/science/article/pii/S2451945619300674?via%3Dihub): -7.1%
- % of engagement [1]: -1.1%

SMILES: COc1cc(N(C)c2ccnc3ccc(C(F)(F)F)cc23)cc(OC)c1OC
- % binding [2]: 92%

SMILES: Nc1cnc(N2CCc3cc(S(=O)(=O)Nc4c(F)cc(Cl)cc4F)cc(N4CCCC4=O)c32)nc1 [TP-020n]
- % of control [3]: 100%

SMILES: COc1cc(Nc2nc(C)cc(-c3cnn4nc(OC)ccc34)n2)cc(C(F)(F)F)c1
- % of control [4]: 100%

SMILES: O[C@H]1CC[C@H](Nc2ncc3nc(Nc4c(F)cc(F)cc4F)n([C@H]4CCOC4)c3n2)CC1
- % of control [5]: 79%

SMILES: CCN(CC)CCCCNc1ncc2cc(-c3cc(OC)cc(OC)c3)c(NC(=O)NC(C)(C)C)nc2n1
- % of control [6]: 100%

SMILES: CN(C)C/C=C/C(=O)Nc1ccc(C(=O)N2CCCC(Nc3ncc(Cl)c(-c4c[nH]c5ccccc45)n3)C2)cc1 (centres undefined)
- % of control [7]: 100%
- % of control [8]: 86%
